From patent US20100179127A1, “PYRIMIDINE DERIVATIVES” (priority 2005, published 2010) come the findings set out here.

Where a name gives a salt, the structure may show the parent alone.

The target of one data set is T1, human GABA-B1b/rat GABA-B2 (UniProt O88871+Q9UBS5).
T1 construct: expressed in transfected cells; host or cells: CHO-K1 cell line (membranes)
T1 sequence (Q9UBS5 1-844 isoform Q9UBS5-2): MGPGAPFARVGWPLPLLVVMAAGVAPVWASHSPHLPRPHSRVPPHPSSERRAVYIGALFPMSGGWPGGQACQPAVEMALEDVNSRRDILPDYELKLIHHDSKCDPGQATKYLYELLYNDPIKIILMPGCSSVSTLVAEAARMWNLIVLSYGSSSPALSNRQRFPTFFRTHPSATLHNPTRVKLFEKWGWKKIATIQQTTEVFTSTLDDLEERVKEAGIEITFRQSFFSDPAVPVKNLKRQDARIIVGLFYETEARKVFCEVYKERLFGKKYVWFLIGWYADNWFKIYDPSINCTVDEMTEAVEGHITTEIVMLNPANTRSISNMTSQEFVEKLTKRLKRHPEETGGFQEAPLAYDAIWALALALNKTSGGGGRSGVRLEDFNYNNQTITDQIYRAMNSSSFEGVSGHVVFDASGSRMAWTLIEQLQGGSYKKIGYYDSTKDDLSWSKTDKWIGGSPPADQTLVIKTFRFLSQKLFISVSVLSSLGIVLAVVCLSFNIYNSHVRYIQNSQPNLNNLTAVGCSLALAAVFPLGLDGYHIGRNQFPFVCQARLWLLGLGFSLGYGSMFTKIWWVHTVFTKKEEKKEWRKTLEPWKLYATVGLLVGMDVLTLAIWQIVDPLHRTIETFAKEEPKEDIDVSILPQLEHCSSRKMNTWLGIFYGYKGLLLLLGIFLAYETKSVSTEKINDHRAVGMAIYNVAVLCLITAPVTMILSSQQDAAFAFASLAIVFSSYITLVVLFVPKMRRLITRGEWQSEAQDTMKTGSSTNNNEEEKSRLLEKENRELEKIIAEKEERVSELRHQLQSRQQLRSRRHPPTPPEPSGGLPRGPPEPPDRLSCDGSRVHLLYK
T1 sequence (O88871 41-940): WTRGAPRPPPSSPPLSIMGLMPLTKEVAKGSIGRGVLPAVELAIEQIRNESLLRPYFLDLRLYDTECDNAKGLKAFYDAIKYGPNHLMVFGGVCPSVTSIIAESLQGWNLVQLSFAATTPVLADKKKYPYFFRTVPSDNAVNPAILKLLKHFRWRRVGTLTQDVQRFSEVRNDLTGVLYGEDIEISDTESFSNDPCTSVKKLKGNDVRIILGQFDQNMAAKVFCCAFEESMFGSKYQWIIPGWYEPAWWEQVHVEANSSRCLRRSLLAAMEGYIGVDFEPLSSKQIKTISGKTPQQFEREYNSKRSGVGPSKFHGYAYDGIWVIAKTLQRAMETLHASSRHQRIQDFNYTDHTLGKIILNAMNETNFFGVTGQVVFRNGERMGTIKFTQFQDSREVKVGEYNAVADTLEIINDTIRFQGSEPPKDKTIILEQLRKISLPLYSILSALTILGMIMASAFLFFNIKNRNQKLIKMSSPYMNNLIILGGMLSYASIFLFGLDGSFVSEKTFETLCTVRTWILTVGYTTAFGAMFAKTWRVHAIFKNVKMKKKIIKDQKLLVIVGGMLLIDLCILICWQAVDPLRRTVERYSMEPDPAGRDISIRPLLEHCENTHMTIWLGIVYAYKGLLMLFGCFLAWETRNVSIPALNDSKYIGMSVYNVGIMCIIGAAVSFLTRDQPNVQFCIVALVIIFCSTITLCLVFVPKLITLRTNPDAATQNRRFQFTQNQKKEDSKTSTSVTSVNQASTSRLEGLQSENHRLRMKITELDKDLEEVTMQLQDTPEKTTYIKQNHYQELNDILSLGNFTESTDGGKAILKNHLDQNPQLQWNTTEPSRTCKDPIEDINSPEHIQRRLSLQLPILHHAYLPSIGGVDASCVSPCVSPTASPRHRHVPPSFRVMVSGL
Description: GTPγ[35S] binding, enhancement of GABA-induced binding. It counts as biochemical. Particulars: 1 μM of GABA, 2.5 μM of Cpd; relative to basal activity. As for the experimental part: In the functional GTP(γ)^35S assay (Lorenzen A, Fuss M, Vogt H, Schwabe U. Measurement of guanine nucleotide-binding protein activation by A1 adenosine receptor agonists in bovine brain membranes. Stimulation of guanosine-5′-O-(3-[^35S]thio)triphosphate binding. Mol. Pharmacol. 1993; 44:115-123) the agents of the invention enhance the GABA-induced GTP( ? )^35S binding at recombinant GABAB receptors with EC50 values of about 0.1 μM to about 50 μM.
GTPγ[^35S] binding. The assay mixtures contained 10 μg f membranes from a human GABA-B1b/rat GABA-B2 expressing CHO-K1 cell line in 50 mM Tris-HCl buffer, pH 7.7; 10 mM MgCl2; 1.8 mM CaCl2; 100 mM NaCl 30 μM guanosine 5′-diphosphate (30 μM; Sigma), 0.2 nM [^35S]GTP(γ)S, and test compounds (Urwyler et al, 2001). 96-well Packard Pico-plates (300 μl volume) were used. Non-specific binding was measured in the presence of unlabelled GTP(γ)S (10 μM, Sigma). The reagents were incubated for 40 min at room temperature and subsequently filtered (Packard unifilter-GF/C). After two washes with assay buffer as above the plates were dried for one hour at 50° C., 50 μl of scintillation solution (Microscint) was added and the radioactivity counted. For data analysis, non-specific binding was subtracted from all the other values; the compound effects were expressed relative to basal activity. Prism 3.0 software (Graph Pad software, San Diego, Calif.) was used for all data calculations. (Urwyler S, Mosbacher J, Lingenhoehl K, Heid J, Hofstetter K, Froestl W, Bettler B, Kaupmann K. Mol. Pharmacol. 2001, 60:963-71).
(GTPγS resists hydrolysis and so accumulates on activated G proteins.)
For the compound `Cc1ncc(-c2ccc(C(F)(F)F)cc2)c(NC2CCCCNC2=O)n1` (centres unmarked) [Example 62, 3-[2-Methyl-5-(4-trifluoromethyl-phenyl)-pyrimidin-4-ylamino]-azepan-2-one], the “Biological activity (%)” value was 77%.

The same data set, now with this note: 1 μM of GABA, 25 μM of Cpd; relative to basal activity.
Consider `Cc1ncc(-c2ccc(C(F)(F)F)cc2)c(NC2CCCCNC2=O)n1` (centres unmarked) [Example 62, 3-[2-Methyl-5-(4-trifluoromethyl-phenyl)-pyrimidin-4-ylamino]-azepan-2-one], for which the “Biological activity (%)” value is recorded as 129%.

Still in this data set, the particulars now being: 20 μM of GABA, 2.5 μM of Cpd; relative to basal activity.
Take `Cc1ncc(-c2ccc(C(F)(F)F)cc2)c(NC2CCCCNC2=O)n1` (centres unmarked) [Example 62, 3-[2-Methyl-5-(4-trifluoromethyl-phenyl)-pyrimidin-4-ylamino]-azepan-2-one]: the “Biological activity (%)” value amounted to 159%.

Still in this data set, the particulars now being: 20 μM of GABA, 25 μM of Cpd; relative to basal activity.
Turning to `Cc1ncc(-c2ccc(C(F)(F)F)cc2)c(NC2CCCCNC2=O)n1` (centres unmarked) [Example 62, 3-[2-Methyl-5-(4-trifluoromethyl-phenyl)-pyrimidin-4-ylamino]-azepan-2-one], the “Biological activity (%)” value amounted to 192%.

Test system in a further data set: not given
Test: not given
Settings: not given
As for `Cc1ncc(-c2ccc(Cl)cc2)c(NC2CCCC2)n1`, the melting point lay within 103 to 106 °C.

`Cc1ncc(-c2cnc(C(F)(F)F)nc2)c(NC2CCCC2)n1` (as salt: hydrochloride) [Example 54, N-cyclopentyl-2-methyl-2′-(trifluoromethyl)-5,5′-bipyrimidin-4-amine hydrochloride] returned a melting point of 249 to 254 °C.

As to `Cc1ccc(-c2c(NC3CCCC3)nc(C)nc2NC2CCCC2)cc1` [Example 20, 5-(4-methylphenyl)-N,N′-dicyclopentyl-2-methylpyrimidine-4,6-diamine], the melting point was in the range of 115 to 128 °C.

The compound `Cc1cccc(-c2c(NC3CCCC3)nc(C)nc2NC2CCCC2)c1` [Example 22, 5-(3-methylphenyl)-N,N′-dicyclopentyl-2-methylpyrimidine-4,6-diamine] came in with a melting point of 95 to 98 °C.

As for `Cc1ncc(-c2ccc(C(=O)O)cc2)c(NC2CCCC2)n1` [Example 27, 4-[4-(cyclopentylamino)-2-methylpyrimidin-5-yl]benzoic acid], the melting point is 252 to 255 °C.

Compound `Cc1ncc(-c2cccc(C(F)(F)F)c2)c(NC2CCCC2)n1` [Example 29, N-cyclopentyl-2-methyl-5-[3-(trifluoromethyl)phenyl]pyrimidin-4-amine] yielded a melting point of 105 to 108 °C.

`Cc1ncc(-c2cc(C(F)(F)F)cc(C(F)(F)F)c2)c(NC2CCCC2)n1` [Example 30, 5-[3,5-bis(trifluoromethyl)phenyl]-N-cyclopentyl-2-methylpyrimidin-4-amine] came in with a melting point of 124 to 126 °C.

`COc1ccc(-c2cnc(C)nc2NC2CCCC2)cc1OC` [Example 31, N-cyclopentyl-5-(3,4-dimethoxyphenyl)-2-methylpyrimidin-4-amine] came in with a melting point of 143 to 145 °C.

Take `Cc1ncc(-c2ccc(C(N)=O)cc2)c(NC2CCCC2)n1` [Example 32, 4-[4-(cyclopentylamino)-2-methylpyrimidin-5-yl]benzamide]: the melting point was in the range of 226 to 228 °C.

In the case of `Cc1ncc(-c2ccc([N+](=O)[O-])cc2)c(NC2CCCC2)n1` [Example 33, N-cyclopentyl-2-methyl-5-(4-nitrophenyl)pyrimidin-4-amine], the melting point lay in the range of 185 to 188 °C.

In turn, `Cc1ncc(-c2ccc(C#N)cc2)c(NC2CCCC2)n1` [Example 36, 4-[4-(cyclopentylamino)-2-methylpyrimidin-5-yl]benzonitrile] returned a melting point of 176 to 180 °C.

`Cc1ncc(-c2ccc(F)cc2)c(NC2CCCC2)n1` [Example 39, N-cyclopentyl-5-(4-fluorophenyl)-2-methylpyrimidin-4-amine] returned a melting point of 83 to 86 °C.

`Cc1ncc(-c2ccc(C(F)(F)F)cc2C(F)(F)F)c(NC2CCCC2)n1` [Example 41, 5-[2,4-bis(trifluoromethyl)phenyl]-N-cyclopentyl-2-methylpyrimidin-4-amine]: the melting point is 128 to 132 °C.

For `Cc1ncc(-c2ccccc2C(F)(F)F)c(NC2CCCC2)n1` [Example 44, N-cyclopentyl-2-methyl-5-[2-(trifluoromethyl)phenyl]pyrimidin-4-amine], the melting point is 80 to 84 °C.

Turning to `Cc1ncc(-c2ccc(C(F)(F)F)cc2Cl)c(NC2CCCC2)n1` [Example 45, 5-[2-chloro-4-(trifluoromethyl)phenyl]-N-cyclopentyl-2-methylpyrimidin-4-amine], the melting point fell in the range of 120 to 132 °C.

`CC(=O)Nc1ccc(-c2cnc(C)nc2NC2CCCC2)cc1` [Example 46, N-{4-[4-(cyclopentylamino)-2-methylpyrimidin-5-yl]phenyl}acetamide]: the melting point is 203 to 210 °C.

`Cc1ncc(-c2ccc(C(F)(F)F)cn2)c(NC2CCCC2)n1` [Example 47, Cyclopentyl-[2-methyl-5-(5-trifluoromethyl-pyridin-2-yl)-pyrimidin-4-yl]-amine] showed a melting point of 130 to 133 °C.

In the case of `Cc1ncc2c3ccc(C(F)(F)F)cc3n(C3CCCC3)c2n1` [Example 48, 9-cyclopentyl-2-methyl-7-(trifluoromethyl)-9H-pyrimido[4,5-b]indole], the melting point was 133 to 134 °C.

On to `Cc1ncc(-c2ccc3nonc3c2)c(NC2CCCC2)n1` [Example 49, 5-(2,1,3-benzoxadiazol-5-yl)-N-cyclopentyl-2-methylpyrimidin-4-amine], for which the melting point lay in the range of 165 to 167 °C.

`C#Cc1nc(C)nc(NC2CCCC2)c1-c1ccc(C(F)(F)F)cc1` [Example 50, N-cyclopentyl-6-ethynyl-2-methyl-5-[4-(trifluoromethyl)phenyl]pyrimidin-4-amine] returned a melting point of 159 to 162 °C.

In turn, `Cc1ncc(-c2ccc(P(=O)(O)O)cc2)c(NC2CCCC2)n1` [Example 51, {4-[4-(cyclopentylamino)-2-methylpyrimidin-5-yl]phenyl}-phosphonic acid] came in with a melting point of 254 to 259 °C.

`Cc1ncc2c3ccc(C(F)(F)F)cc3c(=O)n(C3CCCC3)c2n1` [Example 53, 5-cyclopentyl-3-methyl-8-(trifluoromethyl)pyrimido[4,5-c]-isoquinolin-6(5H)-one]: the melting point was in the range of 137 to 141 °C.

On to `Cc1ncc(C#Cc2ccc(C(F)(F)F)cc2)c(NC2CCCC2)n1` [Example 55, N-cyclopentyl-2-methyl-5-{[4-(trifluoromethyl)phenyl]ethynyl}-pyrimidin-4-amine], for which the melting point fell in the range of 90 to 93 °C.

As to `Cc1ncc(-c2ccc(C(F)(F)F)cc2)c(NC2CCCCNC2=O)n1` (centres unmarked) [Example 62, 3-[2-Methyl-5-(4-trifluoromethyl-phenyl)-pyrimidin-4-ylamino]-azepan-2-one], the melting point was 191 to 196 °C.

With `CCc1nc(NC2CCCC2)c(-c2ccccc2)c(NC2CCCC2)n1` [Example 65, N,N′-Dicyclopentyl-2-ethyl-5-phenyl-pyrimidine-4,6-diamine], the melting point lay within 70 to 71 °C.

The melting point is the temperature, or range, at which the solid turns liquid.
